Data: publication PMC8474115 (Journal of Medicinal Chemistry, 2021)
Where a name gives a salt, the structure may show the parent alone. Read-outs that look alike come from different tables or passages of the source.

Experiments:
Adrenergic α1B = target: T1, Adrenergic α1B (Rattus norvegicus, UniProt P15823); assay: Eurofins SafetyScreen panel; assay type: binding
T1 construct: Eurofins (contract screening, SafetyScreen panel) PP223

Serotonin 5-HT2A = target: T2, Serotonin 5-HT2A (Homo sapiens, UniProt P28223); assay: Eurofins SafetyScreen panel; assay type: binding
T2 construct: Eurofins (contract assay)

hD2L = hD2L (Homo sapiens, UniProt P14416); details: D2R
Procedure: For membrane preparation, cells after reaching 90% confluence, were washed with phosphate-buffered saline (PBS), and pelleted by centrifugation (200 × g) in PBS containing 0.1 mM EDTA and 1 mM dithiothreitol.
The total reaction volume was 200 μL. The incubation process was terminated by filtration through UniFilter-96 (PerkinElmer) plates with the FilterMate Universal Harvester (PerkinElmer, #C961962), and radioactivity retained on the filters was quantified on a MicroBeta counter for radiometric detection (PerkinElmer). […] To evaluate the level of nonspecific signal 10 μM of 5-HT for 5-HT1AR and 5-HT7R, 20 μM of mianserin for 5-HT2AR, 10 μM of methiothepine for 5-HT6R and 10 μM of haloperidol for D2LR were used. […] The acquired results were presented as the mean of at least two independent experiments.

CYP2C19 = CYP2C19 (Homo sapiens, UniProt P33261); assay: Cytochrome P450 inhibition (Eurofins)
[1] = target: T3, Glutamate Metabotropic, mGlu5 (Homo sapiens, UniProt P41594); assay: Eurofins SafetyScreen panel; assay type: binding
T3 construct: purchased Eurofins (Panlabs) SafetyScreen87 Panel

Adrenergic α1A = target: T4, Adrenergic α1A (Rattus norvegicus, UniProt P43140); assay: Eurofins SafetyScreen panel; assay type: binding
T4 construct: Eurofins (contract screening, SafetyScreen panel) PP223

Adenosine A1 = target: T5, Adenosine A1 (Homo sapiens, UniProt P30542); assay: Eurofins SafetyScreen panel; assay type: binding
T5 construct: Eurofins (contract screening, SafetyScreen panel) PP223

Serotonin 5-HT2B = target: T6, Serotonin 5-HT2B (Homo sapiens, UniProt P41595); assay: Eurofins SafetyScreen panel; assay type: binding
T6 construct: Eurofins (contract assay)
T6 sequence (P41595 whole entry): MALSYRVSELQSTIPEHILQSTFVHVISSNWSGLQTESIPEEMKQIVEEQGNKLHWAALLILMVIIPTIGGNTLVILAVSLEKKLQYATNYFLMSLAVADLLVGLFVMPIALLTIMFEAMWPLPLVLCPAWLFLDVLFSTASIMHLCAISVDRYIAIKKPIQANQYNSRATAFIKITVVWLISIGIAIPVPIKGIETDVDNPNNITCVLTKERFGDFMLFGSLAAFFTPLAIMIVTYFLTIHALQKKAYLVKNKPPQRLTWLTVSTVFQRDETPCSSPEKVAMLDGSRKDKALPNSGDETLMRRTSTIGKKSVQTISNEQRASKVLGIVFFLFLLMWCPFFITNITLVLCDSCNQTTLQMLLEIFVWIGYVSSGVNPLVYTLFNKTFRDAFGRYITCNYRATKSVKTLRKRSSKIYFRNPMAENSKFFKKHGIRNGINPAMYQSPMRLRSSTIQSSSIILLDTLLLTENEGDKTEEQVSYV

Serotonin 5-HT4 = target: T7, Serotonin 5-HT4 (Cavia porcellus, UniProt O70528); assay: Eurofins SafetyScreen panel; assay type: binding, guinea pig
T7 construct: Eurofins (contract assay) 272000

Serotonin 5-HT1B = target: T8, Serotonin 5-HT1B (Homo sapiens, UniProt P28222); assay: Eurofins SafetyScreen panel; assay type: binding
T8 construct: Eurofins (contract assay)
T8 sequence (P28222 whole entry): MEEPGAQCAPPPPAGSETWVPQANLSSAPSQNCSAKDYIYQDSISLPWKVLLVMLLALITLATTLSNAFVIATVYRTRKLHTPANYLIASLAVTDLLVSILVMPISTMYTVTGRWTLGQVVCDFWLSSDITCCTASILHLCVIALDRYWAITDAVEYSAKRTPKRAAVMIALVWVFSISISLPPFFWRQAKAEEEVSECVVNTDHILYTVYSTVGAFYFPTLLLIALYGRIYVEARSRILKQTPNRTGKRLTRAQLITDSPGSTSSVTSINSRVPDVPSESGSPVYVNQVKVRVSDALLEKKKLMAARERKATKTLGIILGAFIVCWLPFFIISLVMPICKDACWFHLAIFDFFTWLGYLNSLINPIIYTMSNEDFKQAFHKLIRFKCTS

Protein Tyr Kinase, LCK = target: T9, Protein Tyr Kinase, LCK (Homo sapiens, UniProt P06239); assay: Eurofins SafetyScreen panel; assay type: biochemical
T9 construct: Eurofins (contract screening, SafetyScreen panel) PP223

COX-1 = target: T10, COX-1 (Homo sapiens, UniProt P23219); assay: Eurofins SafetyScreen panel; assay type: biochemical
T10 construct: Eurofins

Muscarinic M2 = target: T11, Muscarinic M2 (Homo sapiens, UniProt P08172); assay: Eurofins SafetyScreen panel; assay type: binding
T11 construct: Eurofins (contract screening, SafetyScreen panel) PP223
T11 sequence (P08172 whole entry): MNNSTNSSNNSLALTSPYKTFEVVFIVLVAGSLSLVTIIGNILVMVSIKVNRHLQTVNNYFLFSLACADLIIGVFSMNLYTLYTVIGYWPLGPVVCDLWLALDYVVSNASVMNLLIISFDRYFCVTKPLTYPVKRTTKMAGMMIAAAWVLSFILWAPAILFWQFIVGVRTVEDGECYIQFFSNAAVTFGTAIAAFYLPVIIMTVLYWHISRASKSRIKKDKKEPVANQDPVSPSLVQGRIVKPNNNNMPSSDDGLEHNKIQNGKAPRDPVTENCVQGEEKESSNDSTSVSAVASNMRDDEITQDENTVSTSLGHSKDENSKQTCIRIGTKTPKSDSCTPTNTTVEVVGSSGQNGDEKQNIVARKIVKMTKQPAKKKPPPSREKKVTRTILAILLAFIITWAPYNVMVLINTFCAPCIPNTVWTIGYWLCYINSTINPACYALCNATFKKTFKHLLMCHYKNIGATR

Adrenergic β1 = target: T12, Adrenergic β1 (Homo sapiens, UniProt P08588); assay: Eurofins SafetyScreen panel; assay type: binding
T12 construct: Eurofins (contract screening, SafetyScreen panel) PP223
T12 sequence (P08588 whole entry): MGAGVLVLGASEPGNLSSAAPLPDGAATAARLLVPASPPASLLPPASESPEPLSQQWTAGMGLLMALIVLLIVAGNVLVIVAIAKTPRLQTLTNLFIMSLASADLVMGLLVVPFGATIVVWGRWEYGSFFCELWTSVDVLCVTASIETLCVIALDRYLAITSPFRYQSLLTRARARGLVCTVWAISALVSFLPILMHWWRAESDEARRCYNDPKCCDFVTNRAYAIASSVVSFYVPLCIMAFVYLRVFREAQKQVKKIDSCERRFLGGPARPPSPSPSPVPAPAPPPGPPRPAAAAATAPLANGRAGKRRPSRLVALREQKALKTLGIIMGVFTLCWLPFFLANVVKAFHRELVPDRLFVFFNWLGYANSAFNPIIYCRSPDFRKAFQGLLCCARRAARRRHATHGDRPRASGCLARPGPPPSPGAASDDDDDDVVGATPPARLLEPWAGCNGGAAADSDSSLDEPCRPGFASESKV

[2] = target: Ca Channel L-Type, Phenylalkylamine (Rattus norvegicus, UniProt P22002); assay: Eurofins SafetyScreen panel; assay type: binding
Chain of Ca Channel L-Type, Phenylalkylamine (P22002 whole entry): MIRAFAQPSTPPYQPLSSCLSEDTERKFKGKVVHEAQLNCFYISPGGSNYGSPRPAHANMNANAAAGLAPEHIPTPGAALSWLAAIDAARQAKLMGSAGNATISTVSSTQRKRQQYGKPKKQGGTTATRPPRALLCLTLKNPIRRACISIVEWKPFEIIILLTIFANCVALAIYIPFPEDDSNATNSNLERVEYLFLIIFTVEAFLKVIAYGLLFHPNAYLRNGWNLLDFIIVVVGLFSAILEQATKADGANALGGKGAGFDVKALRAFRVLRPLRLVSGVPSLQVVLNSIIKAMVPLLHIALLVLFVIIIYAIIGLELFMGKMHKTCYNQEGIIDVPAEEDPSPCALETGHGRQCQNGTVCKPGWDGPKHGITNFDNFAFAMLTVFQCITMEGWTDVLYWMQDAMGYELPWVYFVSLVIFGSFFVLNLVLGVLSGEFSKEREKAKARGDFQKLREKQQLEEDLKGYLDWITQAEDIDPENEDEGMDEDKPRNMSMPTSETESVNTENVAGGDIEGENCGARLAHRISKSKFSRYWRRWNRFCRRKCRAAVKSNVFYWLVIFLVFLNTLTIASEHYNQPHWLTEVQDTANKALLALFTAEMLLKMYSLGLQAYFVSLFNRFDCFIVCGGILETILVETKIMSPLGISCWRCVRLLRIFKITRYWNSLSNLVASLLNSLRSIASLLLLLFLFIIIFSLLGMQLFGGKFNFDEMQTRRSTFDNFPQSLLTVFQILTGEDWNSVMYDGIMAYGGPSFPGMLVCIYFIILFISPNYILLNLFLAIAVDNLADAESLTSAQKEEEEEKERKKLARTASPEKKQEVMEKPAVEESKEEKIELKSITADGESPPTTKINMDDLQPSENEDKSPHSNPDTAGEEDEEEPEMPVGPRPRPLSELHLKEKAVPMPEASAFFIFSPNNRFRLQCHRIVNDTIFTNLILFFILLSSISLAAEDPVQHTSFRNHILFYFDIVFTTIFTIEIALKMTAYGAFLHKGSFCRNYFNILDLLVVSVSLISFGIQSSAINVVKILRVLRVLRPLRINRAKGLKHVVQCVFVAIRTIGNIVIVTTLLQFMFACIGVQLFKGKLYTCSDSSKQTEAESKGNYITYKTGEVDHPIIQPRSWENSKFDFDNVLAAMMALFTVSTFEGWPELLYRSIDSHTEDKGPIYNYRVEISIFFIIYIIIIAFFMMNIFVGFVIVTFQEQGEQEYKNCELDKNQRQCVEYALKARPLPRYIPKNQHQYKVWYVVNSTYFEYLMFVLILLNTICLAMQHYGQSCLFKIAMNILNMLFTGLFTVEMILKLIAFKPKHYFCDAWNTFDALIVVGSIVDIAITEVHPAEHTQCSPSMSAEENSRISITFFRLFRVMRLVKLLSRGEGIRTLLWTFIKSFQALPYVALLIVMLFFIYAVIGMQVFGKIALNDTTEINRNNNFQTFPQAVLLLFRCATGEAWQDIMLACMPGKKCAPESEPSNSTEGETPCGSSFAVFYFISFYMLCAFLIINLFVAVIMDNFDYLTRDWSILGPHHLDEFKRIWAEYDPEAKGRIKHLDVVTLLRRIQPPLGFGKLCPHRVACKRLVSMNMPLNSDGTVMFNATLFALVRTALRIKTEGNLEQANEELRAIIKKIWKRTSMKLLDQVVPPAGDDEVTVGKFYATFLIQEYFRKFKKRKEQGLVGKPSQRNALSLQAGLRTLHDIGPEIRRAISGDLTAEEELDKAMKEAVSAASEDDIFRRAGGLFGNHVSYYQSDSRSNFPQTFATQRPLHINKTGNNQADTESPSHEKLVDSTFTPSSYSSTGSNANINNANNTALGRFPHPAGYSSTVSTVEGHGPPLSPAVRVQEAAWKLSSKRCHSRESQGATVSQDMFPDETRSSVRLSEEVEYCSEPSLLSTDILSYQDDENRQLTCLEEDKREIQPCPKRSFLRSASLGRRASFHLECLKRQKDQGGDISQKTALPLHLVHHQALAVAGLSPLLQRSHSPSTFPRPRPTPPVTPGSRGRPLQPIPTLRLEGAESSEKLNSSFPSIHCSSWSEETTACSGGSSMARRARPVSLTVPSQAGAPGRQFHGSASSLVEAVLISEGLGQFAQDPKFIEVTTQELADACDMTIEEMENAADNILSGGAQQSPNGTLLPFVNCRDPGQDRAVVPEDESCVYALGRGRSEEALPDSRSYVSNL

Adrenergic α1D = target: T13, Adrenergic α1D (Homo sapiens, UniProt P25100); assay: Eurofins SafetyScreen panel; assay type: binding
T13 construct: Eurofins (contract screening, SafetyScreen panel) PP223

Endothelin ETA = target: T14, Endothelin ETA (Homo sapiens, UniProt P25101); assay: Eurofins SafetyScreen panel; assay type: binding
T14 construct: purchased Eurofins (Panlabs) SafetyScreen87 Panel

Adrenergic α2B = target: T15, Adrenergic α2B (Homo sapiens, UniProt P18089); assay: Eurofins SafetyScreen panel; assay type: binding
T15 construct: Eurofins (contract screening, SafetyScreen panel) PP223
T15 sequence (P18089 1-450): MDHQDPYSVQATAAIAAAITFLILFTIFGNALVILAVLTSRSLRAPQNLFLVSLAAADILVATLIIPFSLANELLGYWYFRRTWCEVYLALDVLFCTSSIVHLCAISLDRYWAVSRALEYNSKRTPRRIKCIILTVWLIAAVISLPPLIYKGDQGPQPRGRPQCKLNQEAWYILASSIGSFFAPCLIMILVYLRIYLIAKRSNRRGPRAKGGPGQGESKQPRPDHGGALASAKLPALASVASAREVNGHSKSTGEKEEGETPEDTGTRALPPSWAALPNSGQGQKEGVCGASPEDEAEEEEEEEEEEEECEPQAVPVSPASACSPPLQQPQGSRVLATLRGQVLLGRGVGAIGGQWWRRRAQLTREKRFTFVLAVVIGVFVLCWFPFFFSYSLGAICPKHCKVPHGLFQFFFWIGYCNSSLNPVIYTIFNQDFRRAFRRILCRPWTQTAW

COX-2 = target: T16, COX-2 (Homo sapiens, UniProt P35354); assay: Eurofins SafetyScreen panel; assay type: biochemical
T16 construct: Eurofins

[3] = target: T17, Protein Tyr Kinase, Insulin receptor (Homo sapiens, UniProt P06213); assay: Eurofins SafetyScreen panel; assay type: biochemical
T17 construct: Eurofins (contract screening, SafetyScreen panel) PP223

PPARγ = target: T18, PPARγ (Homo sapiens, UniProt P37231); assay: Eurofins SafetyScreen panel; assay type: binding
T18 construct: Eurofins (contract assay)
T18 sequence (P37231 whole entry): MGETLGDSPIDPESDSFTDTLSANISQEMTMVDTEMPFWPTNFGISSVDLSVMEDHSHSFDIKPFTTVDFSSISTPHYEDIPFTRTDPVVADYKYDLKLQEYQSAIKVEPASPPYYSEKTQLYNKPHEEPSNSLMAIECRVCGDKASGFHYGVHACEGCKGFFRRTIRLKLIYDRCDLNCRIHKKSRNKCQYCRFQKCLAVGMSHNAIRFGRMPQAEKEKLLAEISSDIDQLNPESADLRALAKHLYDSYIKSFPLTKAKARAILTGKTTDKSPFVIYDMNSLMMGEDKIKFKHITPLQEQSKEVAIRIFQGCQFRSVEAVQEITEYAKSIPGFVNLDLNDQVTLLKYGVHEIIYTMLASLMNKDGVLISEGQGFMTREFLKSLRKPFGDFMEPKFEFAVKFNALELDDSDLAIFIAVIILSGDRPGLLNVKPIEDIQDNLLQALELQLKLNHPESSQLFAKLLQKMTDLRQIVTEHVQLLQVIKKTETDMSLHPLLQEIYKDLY

Dopamine D2L = target: T19, Dopamine D2L (Homo sapiens, UniProt P14416); assay: Eurofins SafetyScreen panel; assay type: binding
T19 construct: purchased Eurofins (Panlabs) SafetyScreen87 Panel

Muscarinic M4 = target: T20, Muscarinic M4 (Homo sapiens, UniProt P08173); assay: Eurofins SafetyScreen panel; assay type: binding
T20 construct: Eurofins (contract screening, SafetyScreen panel) PP223

Histamine H3 = target: T21, Histamine H3 (Homo sapiens, UniProt Q9Y5N1); assay: Eurofins SafetyScreen panel; assay type: binding
T21 construct: purchased Eurofins (Panlabs) SafetyScreen87 Panel
T21 sequence (Q9Y5N1 whole entry): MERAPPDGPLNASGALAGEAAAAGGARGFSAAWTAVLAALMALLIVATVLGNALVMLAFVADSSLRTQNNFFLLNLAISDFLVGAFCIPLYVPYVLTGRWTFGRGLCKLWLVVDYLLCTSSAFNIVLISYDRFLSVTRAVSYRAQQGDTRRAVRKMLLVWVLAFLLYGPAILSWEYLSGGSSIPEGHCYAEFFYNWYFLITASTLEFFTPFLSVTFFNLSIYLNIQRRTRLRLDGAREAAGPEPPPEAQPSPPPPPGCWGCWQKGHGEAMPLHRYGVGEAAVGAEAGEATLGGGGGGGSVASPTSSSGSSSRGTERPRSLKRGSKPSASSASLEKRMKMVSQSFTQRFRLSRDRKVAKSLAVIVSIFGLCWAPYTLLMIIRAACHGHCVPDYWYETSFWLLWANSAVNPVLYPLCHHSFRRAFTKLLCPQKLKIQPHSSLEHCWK

[4] = read-out: %inh, 10 μM, additional batch

In the case of `O=S(=O)(c1cccc(F)c1)n1ccc2c(N3CCNCC3)nc3ccccc3c21` [FPPQ, 1-[(3-Fluorophenyl)sulfonyl]-4-(piperazin-1-yl)-1H-pyrrolo[3,2-c]quinoline dihydrochloride], the inhibition at 10 µM (Adrenergic α1B) is reported as 29%, the inhibition at 10 µM (Serotonin 5-HT2A) is reported as 50% and the Ki (hD2L) is reported as 4390 nM. For the same molecule, the IC50 (CYP2C19) was 10000 nM, the inhibition at 10 µM [1] was 16% and the inhibition at 10 µM (Adrenergic α1A) was 34%. For the same molecule, the inhibition at 10 µM (Adenosine A1) was 29%, the IC50 (Serotonin 5-HT2B) was 260 nM and the Ki (Serotonin 5-HT2B) was 170 nM. The inhibition at 0.01 µM (Serotonin 5-HT2B; read-out: %inh, 10 nM) was 13%, the inhibition at 0.1 µM (Serotonin 5-HT2B; read-out: %inh, 0.1 μM) was 31% and the inhibition at 1 µM (Serotonin 5-HT2B; read-out: %inh, 1 μM) was 71%. It also gave an inhibition at 10 µM (Serotonin 5-HT2B; read-out: %inh, 10 μM) of 96%, an inhibition at 10 µM (Serotonin 5-HT2B; [4]) of 97% and an inhibition at 10 µM (Serotonin 5-HT4) of 30%. For the same molecule, the IC50 (Serotonin 5-HT1B) was 1170 nM, the Ki (Serotonin 5-HT1B) was 890 nM and the inhibition at 0.01 µM (Serotonin 5-HT1B; read-out: %inh, 10 nM) was 5%. The inhibition at 0.1 µM (Serotonin 5-HT1B; read-out: %inh, 0.1 μM) was 4%, the inhibition at 1 µM (Serotonin 5-HT1B; read-out: %inh, 1 μM) was 47% and the inhibition at 10 µM (Serotonin 5-HT1B; read-out: %inh, 10 μM) was 90%. The inhibition at 10 µM (Serotonin 5-HT1B; [4]) was 92%, the inhibition at 10 µM (Protein Tyr Kinase, LCK) was 6% and the inhibition at 10 µM (COX-1) was -6%. The inhibition at 10 µM (Muscarinic M2) was 5%, the IC50 (Adrenergic β1) was 300 nM and the Ki (Adrenergic β1) was 170 nM. It also gave an inhibition at 0.01 µM (Adrenergic β1; read-out: %inh, 10 nM) of -3%, an inhibition at 0.1 µM (Adrenergic β1; read-out: %inh, 0.1 μM) of 27% and an inhibition at 1 µM (Adrenergic β1; read-out: %inh, 1 μM) of 75%. For the same molecule, the inhibition at 10 µM (Adrenergic β1; [4]) was 102%, the inhibition at 0.01 µM ([2]; 10 nM) was -2% and the inhibition at 0.1 µM ([2]; 0.1 μM) was 9%. It also gave an inhibition at 1 µM ([2]; 1 μM) of 48%, an inhibition at 10 µM [2] of 78% and an inhibition at 10 µM ([2]; additional batch) of 85%. For the same molecule, the inhibition at 10 µM (Adrenergic α1D) was 24%, the inhibition at 10 µM (Endothelin ETA) was 3% and the IC50 (Adrenergic α2B) was 10100 nM. For the same molecule, the Ki (Adrenergic α2B) was 4610 nM, the inhibition at 0.1 µM (Adrenergic α2B; read-out: %inh, 0.1 μM) was 1% and the inhibition at 1 µM (Adrenergic α2B; read-out: %inh, 1 μM) was -4%. The inhibition at 10 µM (Adrenergic α2B; read-out: %inh, 10 μM) was 43%, the inhibition at 10 µM (Adrenergic α2B; [4]) was 53% and the inhibition at 100 µM (Adrenergic α2B; read-out: %inh, 100 μM) was 108%. The inhibition at 10 µM (COX-2) was -13%, the inhibition at 10 µM [3] was -6% and the inhibition at 10 µM (PPARγ) was 28%. It also gave an inhibition at 10 µM (Dopamine D2L) of 46%, an inhibition at 10 µM (Muscarinic M4) of 8% and an inhibition at 10 µM (Histamine H3) of 26%.
